# Data reported in publication PMC10683472, “Deep Learning-Driven Library Design for the De Novo Discovery of Bioactive Thiopeptides” (ACS Central Science, 2023).
# *1 amine or outer side, *2 acyl side, *3 side chain or, on linkers, in order; H or OH if unused. Where a SMILES comes first, the peptide text is derived from it. Where no end group is shown, it is not given here. [ ]: non-standard residue; d: D form. hGln = L-homoglutamine, NC(=O)CCC[C@H](N[*:1])C(=O)[*:2]; pyridine‑bisazole = not defined here
# T1: Human TLR10 Fc Chimera protein (extracellular domain) (Homo sapiens, UniProt Q9BXR5)
# T1 construct: Chimera protein (extracellular domain, amino acid 20-576;); Fc (chimera); purchased R&D system #6619-TR-050
# T1 sequence (Q9BXR5 20-576): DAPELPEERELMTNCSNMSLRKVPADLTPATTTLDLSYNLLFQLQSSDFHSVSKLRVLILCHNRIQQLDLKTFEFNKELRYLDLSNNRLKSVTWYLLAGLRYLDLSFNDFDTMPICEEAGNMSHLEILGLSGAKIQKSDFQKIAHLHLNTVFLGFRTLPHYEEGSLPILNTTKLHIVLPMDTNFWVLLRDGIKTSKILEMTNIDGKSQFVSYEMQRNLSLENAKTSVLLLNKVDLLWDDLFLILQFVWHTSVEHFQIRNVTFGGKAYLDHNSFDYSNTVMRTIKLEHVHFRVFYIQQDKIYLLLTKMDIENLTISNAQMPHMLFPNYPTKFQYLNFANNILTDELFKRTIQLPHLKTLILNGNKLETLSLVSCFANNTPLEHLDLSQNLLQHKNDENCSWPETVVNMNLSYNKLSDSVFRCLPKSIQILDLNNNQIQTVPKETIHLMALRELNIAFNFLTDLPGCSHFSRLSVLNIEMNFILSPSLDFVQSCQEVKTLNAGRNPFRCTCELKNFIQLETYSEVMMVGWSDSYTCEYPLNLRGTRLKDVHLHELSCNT
# T2: TLR10 (Homo sapiens, UniProt Q9BXR5)
# T2 sequence (Q9BXR5 20-576): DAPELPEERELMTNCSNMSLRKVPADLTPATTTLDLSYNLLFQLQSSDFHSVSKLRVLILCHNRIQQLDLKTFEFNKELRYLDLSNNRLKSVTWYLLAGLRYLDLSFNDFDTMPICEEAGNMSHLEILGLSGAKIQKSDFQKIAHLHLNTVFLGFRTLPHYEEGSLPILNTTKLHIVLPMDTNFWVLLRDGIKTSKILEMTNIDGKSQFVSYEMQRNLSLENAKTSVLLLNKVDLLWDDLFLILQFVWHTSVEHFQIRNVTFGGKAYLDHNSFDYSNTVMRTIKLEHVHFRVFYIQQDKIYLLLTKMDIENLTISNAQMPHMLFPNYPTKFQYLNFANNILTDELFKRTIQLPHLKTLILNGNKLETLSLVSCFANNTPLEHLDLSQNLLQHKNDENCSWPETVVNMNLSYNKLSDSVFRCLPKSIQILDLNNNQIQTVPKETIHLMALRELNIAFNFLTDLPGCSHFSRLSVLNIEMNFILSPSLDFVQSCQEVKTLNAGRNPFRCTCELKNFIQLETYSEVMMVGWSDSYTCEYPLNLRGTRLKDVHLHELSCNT
# T3: toll-like receptor 10, extracellular domain (UniProt Q9BXR5 20-576)
# T3 construct: toll-like receptor 10 (TLR10), extracellular domain; also called TLR10; TLR10 cell surface receptor
# T3 sequence (looked up): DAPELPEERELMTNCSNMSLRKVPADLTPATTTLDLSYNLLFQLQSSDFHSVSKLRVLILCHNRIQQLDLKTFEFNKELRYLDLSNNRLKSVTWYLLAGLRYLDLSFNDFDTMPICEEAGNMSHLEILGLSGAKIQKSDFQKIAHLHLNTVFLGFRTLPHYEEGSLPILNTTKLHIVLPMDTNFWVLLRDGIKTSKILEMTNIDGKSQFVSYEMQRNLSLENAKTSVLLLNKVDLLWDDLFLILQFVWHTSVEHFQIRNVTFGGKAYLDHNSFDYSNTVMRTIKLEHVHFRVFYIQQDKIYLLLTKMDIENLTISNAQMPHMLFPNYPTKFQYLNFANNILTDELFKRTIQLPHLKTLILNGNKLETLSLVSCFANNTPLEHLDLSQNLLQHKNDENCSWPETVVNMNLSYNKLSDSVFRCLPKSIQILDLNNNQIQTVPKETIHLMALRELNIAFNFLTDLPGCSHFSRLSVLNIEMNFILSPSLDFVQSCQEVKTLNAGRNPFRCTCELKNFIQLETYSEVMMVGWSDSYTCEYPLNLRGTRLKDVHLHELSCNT
# B1: thiopeptide TL4 (synthetic) (peptide)
# chain: SWTIRFTNQNKIAFSCSC
# modifications: bridge (positions not given here) via pyridine‑bisazole; reading uncertain; also: macrocycle closed through pyridine-bisazole moiety, oxazole to thiazole change
# B2: thiopeptide TL3 (synthetic) (peptide)
# chain: SW[hGln]ISFWLQRKVAFSCSC
# modifications: bridge (positions not given here) via pyridine‑bisazole; reading uncertain; also: macrocycle closed through a pyridine-bisazole moiety, oxazole to thiazole change
# Key:
# [1] = target: T1, Human TLR10 Fc Chimera protein (extracellular domain); assay: Surface plasmon resonance binding to TLR10; conditions: SPR
# Procedure: Reagents were purchased from Nacalai Tesque, Wako Pure Chemical Industries, Sigma-Aldrich Japan, or TCI Chemicals and were used as received. […]
# Anti-HA magnetic beads were from Pierce Thermo […]
# 2000c spectrophotometer (Thermo Scientific) equipped with a 5 mm pathlength quartz cuvette using extinction coefficient values calculated with ExPASy ProtParam tool (https://web.expasy.org/protparam). […]
# Biochemical measurements (sections 2.10 – 2.14) were performed in triplicate or more. Most […]
# determination of biophysical parameters involved cell assay (CP50 and IC50), reported are standard errors of the fit; otherwise, error bars are standard deviations. […]
# Serum stability assay = format: in vitro ADME; conditions: human serum, 37 °C, LC/MS; for half-life at 10 µM: pH 7.6, read-out: serum stability τ1/2 (converted)
# Procedure: Next, we tested the metabolic stability of the discovered thiopeptides. The compounds were incubated in human serum at 37 °C in the presence of an internal control, and the amounts of the remaining analytes were quantified by LC/MS (Figures S27 and 28). […] At the other extreme, IR11 rapidly degraded in human serum with τ1/2 = 0.5 h. […]
# Kinetic parameters and affinities of the […]
# 2.12. Thiopeptide metabolic stability experiments
# The mixtures were stirred
# well and transferred to a 37 °C thermostat. […]
# TLR10 [2] = target: T2, TLR10; assay: Single-round mRNA display binding assay (qPCR), TLR10; conditions: ratio of cDNA recoveries (qPCR), TLR10 pulldown over beads only, single-round selection
# TLR10 [3] = target: T2, TLR10; assay: mRNA display affinity selection against TLR10, NGS abundance; format: binding; set-up: Chimera protein (extracellular domain, amino acid 20-576;); Fc (chimera); purchased R&D system #6619-TR-050; conditions: for rank in pulldown(–) / rank in pulldown(+): TLR10 selection, NGS abundance rank; for rank in pulldown(+): –: not found in the final pulldown(+) libraries at the sequenced depth
# [4] = target: T3, toll-like receptor 10, extracellular …; assay: SPR; surface plasmon resonance of synthetic thiopeptides on their target protein; conditions in S.I. 2.10 (not shown); conditions: both partners purified
# [5] = TLR10 selection pulldown (-), Top100 selection hits, NGS
Molecule,koff [1] [s⁻¹],kon [1] [M⁻¹ s⁻¹],half-life at 10 µM (Serum stability assay) [h],display P/N ratio (TLR10 [2]),"fraction of the pulldown(−) population (TLR10 [3]; TLR10 pulldown(−) selection, NGS) [%]",Library fraction (TLR10 [3]; [5]),Raw reads (TLR10 [3]; [5]),rank in pulldown(–) (TLR10 [3]),rank in pulldown(+) (TLR10 [3]),serum stability τ1/2 (Serum stability assay) [h],Kd [4] [nM]
"C=C1NC(=O)[C@H](Cc2ccccc2)NC(=O)[C@H](C)NC(=O)[C@H](C(C)C)NC(=O)[C@H](CCCCN)NC(=O)[C@H](CCCNC(=N)N)NC(=O)[C@H](CCC(N)=O)NC(=O)[C@H](CC(C)C)NC(=O)[C@H](Cc2c[nH]c3ccccc23)NC(=O)[C@H](Cc2ccccc2)NC(=O)[C@H](CO)NC(=O)[C@H]([C@@H](C)CC)NC(=O)[C@H](CCCC(N)=O)NC(=O)[C@H](Cc2c[nH]c3ccccc23)NC(=O)c2ccc(-c3nc(C(=O)OC)cs3)nc2-c2csc1n2 [TL3] (HELM PEPTIDE1{W.[O=C([C@H](CCCC(=O)[*:3])N[*:1])[*:2]].I.S.F.W.L.Q.R.K.V.A.F}|PEPTIDE2{[am]}|CHEM1{[C=C(N[*:2])c1nc(-c2nc(-c3nc(C(=O)OC)cs3)ccc2C(=O)[*:1])cs1]}$PEPTIDE1,PEPTIDE2,2:R3-1:R1|PEPTIDE1,CHEM1,1:R1-1:R1|PEPTIDE1,CHEM1,13:R2-1:R2$$$V2.0; bridges inferred)",0.0056,6270,3.2 ± 0.2,186,8.1,0.095,11388,2,–,–,–
"C=C1NC(=O)[C@H](Cc2ccccc2)NC(=O)[C@H](C)NC(=O)[C@H]([C@@H](C)CC)NC(=O)[C@H](CCCCN)NC(=O)[C@H](CC(N)=O)NC(=O)[C@H](CCC(N)=O)NC(=O)[C@H](CC(N)=O)NC(=O)[C@H]([C@@H](C)O)NC(=O)[C@H](Cc2ccccc2)NC(=O)[C@H](CCCNC(=N)N)NC(=O)[C@H]([C@@H](C)CC)NC(=O)[C@H]([C@@H](C)O)NC(=O)[C@H](Cc2c[nH]c3ccccc23)NC(=O)c2ccc(-c3nc(C(=O)OC)cs3)nc2-c2csc1n2 [TL4] (HELM PEPTIDE1{W.T.I.R.F.T.N.Q.N.K.I.A.F}|CHEM1{[C=C(N[*:2])c1nc(-c2nc(-c3nc(C(=O)OC)cs3)ccc2C(=O)[*:1])cs1]}$PEPTIDE1,CHEM1,1:R1-1:R1|PEPTIDE1,CHEM1,13:R2-1:R2$$$V2.0; bridges inferred)",0.033,47500,4.4 ± 0.3,975,–,–,–,3,7,–,–
"C=C1NC(=O)[C@H]([C@@H](C)CC)NC(=O)[C@H](C)NC(=O)[C@H](CC(C)C)NC(=O)[C@H](CCCCN)NC(=O)[C@H](CO)NC(=O)[C@H](CCC(N)=O)NC(=O)[C@H](CC(C)C)NC(=O)[C@H](CCCNC(=N)N)NC(=O)[C@H](Cc2ccccc2)NC(=O)[C@H](CC(C)C)NC(=O)[C@H](CCCC)NC(=O)[C@H]([C@@H](C)O)NC(=O)[C@H](Cc2c[nH]c3ccccc23)NC(=O)c2ccc(-c3nc(C(=O)OC)cs3)nc2-c2csc1n2 [TL6] (HELM PEPTIDE1{W.T.[Nle].L.F.R.L.Q.S.K.L.A.I}|CHEM1{[C=C(N[*:2])c1nc(-c2nc(-c3nc(C(=O)OC)cs3)ccc2C(=O)[*:1])cs1]}$PEPTIDE1,CHEM1,1:R1-1:R1|PEPTIDE1,CHEM1,13:R2-1:R2$$$V2.0)",0.0048,7650,8.2 ± 1.2,268,–,–,–,12,–,–,–
"C=C1NC(=O)[C@H](CCCC(N)=O)NC(=O)[C@H](Cc2ccc(O)cc2)NC(=O)[C@H](CC(C)C)NC(=O)[C@H](CCCC)NC(=O)[C@H](CC(N)=O)NC(=O)[C@H]([C@@H](C)O)NC(=O)[C@H](CCC(N)=O)NC(=O)[C@H](CCCCN)NC(=O)[C@H]([C@@H](C)CC)NC(=O)[C@H](CC(C)C)NC(=O)[C@H](CC(C)C)NC(=O)[C@H](C)NC(=O)[C@H](Cc2c[nH]c3ccccc23)NC(=O)c2ccc(-c3nc(C(=O)OC)cs3)nc2-c2csc1n2 [TL17] (HELM PEPTIDE1{W.A.L.L.I.K.Q.T.N.[Nle].L.Y.[O=C([C@H](CCCC(=O)[*:3])N[*:1])[*:2]]}|PEPTIDE2{[am]}|CHEM1{[C=C(N[*:2])c1nc(-c2nc(-c3nc(C(=O)OC)cs3)ccc2C(=O)[*:1])cs1]}$PEPTIDE1,PEPTIDE2,13:R3-1:R1|PEPTIDE1,CHEM1,1:R1-1:R1|PEPTIDE1,CHEM1,13:R2-1:R2$$$V2.0; bridges inferred)",0.0067,18900,6 ± 0.1,737,–,–,–,9,10,–,–
"C=C1NC(=O)[C@H](CCCCN)NC(=O)[C@H]([C@@H](C)CC)NC(=O)[C@H](CCCC)NC(=O)[C@H](C(C)C)NC(=O)[C@H](CCCNC(=N)N)NC(=O)CNC(=O)[C@H]([C@@H](C)CC)NC(=O)[C@H](Cc2c[nH]c3ccccc23)NC(=O)c2ccc(-c3nc(C(=O)OC)cs3)nc2-c2csc(n2)C(=C)NC(=O)c2coc1n2 [TL19] (HELM PEPTIDE1{W.I.G.R.V.[Nle].I.K.[C=C(N[*:1])c1nc(C(=O)[*:2])co1]}|CHEM1{[C=C(N[*:2])c1nc(-c2nc(-c3nc(C(=O)OC)cs3)ccc2C(=O)[*:1])cs1]}$PEPTIDE1,CHEM1,1:R1-1:R1|PEPTIDE1,CHEM1,9:R2-1:R2$$$V2.0; bridges inferred)",0.0032,5540,7.4 ± 1.5,263,–,–,–,22,16,–,–
"C=C1NC(=O)[C@H](Cc2c[nH]cn2)NC(=O)[C@H]([C@@H](C)CC)NC(=O)[C@H](C(C)C)NC(=O)[C@H](C(C)C)NC(=O)[C@H](CC(N)=O)NC(=O)[C@H](C(C)C)NC(=O)[C@H](CCCNC(=N)N)NC(=O)[C@H](CO)NC(=O)[C@H](CC(C)C)NC(=O)[C@H](CCC(=O)O)NC(=O)[C@H](CC(C)C)NC(=O)[C@H](CO)NC(=O)[C@H](Cc2c[nH]c3ccccc23)NC(=O)c2ccc(-c3nc(C(=O)OC)cs3)nc2-c2csc1n2 [TL20] (HELM PEPTIDE1{W.S.L.E.L.S.R.V.N.V.V.I.H}|CHEM1{[C=C(N[*:2])c1nc(-c2nc(-c3nc(C(=O)OC)cs3)ccc2C(=O)[*:1])cs1]}$PEPTIDE1,CHEM1,1:R1-1:R1|PEPTIDE1,CHEM1,13:R2-1:R2$$$V2.0; bridges inferred)",0.0078,25500,38.2 ± 6,286,–,–,–,52,–,38,–
B1,–,–,–,–,–,–,–,–,–,–,680
B2,–,–,–,–,–,–,–,–,–,–,890
